According to ChEMBL document CHEMBL1151337, “New tertiary alkaloids of Strychnos decussata” (J Nat Prod, 1980):

What was measured:
[1] = Toxicity in ip dosed NMRI mouse assessed as clonic and tonic convulsions; type: organism-based; settings: in vivo
[2] = test system: Mus musculus; test: Toxicity in ip dosed NMRI mouse assessed as clonic and tonic convulsions assessed as cunvulsive dose; type: organism-based; settings: in vivo

Structure (SMILES): C/C=C(/C=O)[C@H]1C[C@H](OC)n2c3c(c4cc(O)ccc42)CCN(C)[C@H]3C1
- LD50 [1]: 75 mg/kg
- Activity [2]: 75 mg/kg

Structure (SMILES): C/C=C(/C=O)[C@@H]1C[C@H]2c3c(c4ccccc4n3[C@@H](O)C1)CCN2C [AKAGERINE]
- Activity [2]: 50 mg/kg

Structure (SMILES): C/C=C1\[C@@H]2C[C@H]3c4c(c5cc(O)ccc5n4[C@@H](C2)O[C@H]1OC)CCN3C
- LD50 [1]: 84 mg/kg
- Activity [2]: 84 mg/kg

Structure (SMILES): C/C=C(/C=O)[C@H]1C[C@H](OC)n2c3c(c4ccccc42)CCN(C)[C@H]3C1
- Activity [2]: 45.3 mg/kg

Structure (SMILES): C/C=C1\[C@@H]2C[C@H]3c4c(c5cc(O)ccc5n4[C@@H](C2)O[C@@H]1OC)CCN3C
- LD50 [1]: 90 mg/kg
- Activity [2]: 80 mg/kg
